The text below walks through data of PMC10837133, “Molecular basis of Spns2-facilitated sphingosine-1-phosphate transport” (Cell Research, 2023).

The target of assay [1] is T1, Spns2 (Spinster homolog 2) (Homo sapiens, UniProt Q8IVW8).
T1 sequence (Q8IVW8 1-549): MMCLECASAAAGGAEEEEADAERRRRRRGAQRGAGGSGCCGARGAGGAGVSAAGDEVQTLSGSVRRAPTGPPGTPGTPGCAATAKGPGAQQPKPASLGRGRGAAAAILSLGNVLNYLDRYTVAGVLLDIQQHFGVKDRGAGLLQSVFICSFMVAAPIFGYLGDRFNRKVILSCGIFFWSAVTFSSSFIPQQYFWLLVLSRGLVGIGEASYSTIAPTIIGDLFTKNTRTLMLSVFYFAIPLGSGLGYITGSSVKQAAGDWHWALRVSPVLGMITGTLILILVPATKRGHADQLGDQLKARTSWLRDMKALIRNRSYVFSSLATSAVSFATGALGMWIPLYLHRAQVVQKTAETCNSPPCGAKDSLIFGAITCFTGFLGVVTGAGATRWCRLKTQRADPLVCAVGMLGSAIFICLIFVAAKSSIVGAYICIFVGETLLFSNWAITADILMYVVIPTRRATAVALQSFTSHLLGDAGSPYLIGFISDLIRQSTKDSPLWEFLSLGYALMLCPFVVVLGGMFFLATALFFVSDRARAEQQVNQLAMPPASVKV
The assay can be described thus: cell-based FTY720-P transport assay, WT vs mutants.

Assay [2] has as its target T2, Spns2 (Spinster homolog 2) (Homo sapiens, UniProt Q8IVW8).
T2 construct: Spns2fusion: PGS (Pyrococcus abyssi glycogen synthase) fused between F222 and T223 on intracellular loop 2
T2 sequence (Q8IVW8 1-222 limits assumed): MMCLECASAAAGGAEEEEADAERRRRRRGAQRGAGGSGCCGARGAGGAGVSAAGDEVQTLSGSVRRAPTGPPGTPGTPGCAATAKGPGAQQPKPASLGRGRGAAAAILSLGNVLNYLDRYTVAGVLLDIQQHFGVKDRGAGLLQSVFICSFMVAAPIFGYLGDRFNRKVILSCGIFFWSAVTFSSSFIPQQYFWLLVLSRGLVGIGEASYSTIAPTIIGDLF
T2 sequence (Q8IVW8 223-549 limits assumed): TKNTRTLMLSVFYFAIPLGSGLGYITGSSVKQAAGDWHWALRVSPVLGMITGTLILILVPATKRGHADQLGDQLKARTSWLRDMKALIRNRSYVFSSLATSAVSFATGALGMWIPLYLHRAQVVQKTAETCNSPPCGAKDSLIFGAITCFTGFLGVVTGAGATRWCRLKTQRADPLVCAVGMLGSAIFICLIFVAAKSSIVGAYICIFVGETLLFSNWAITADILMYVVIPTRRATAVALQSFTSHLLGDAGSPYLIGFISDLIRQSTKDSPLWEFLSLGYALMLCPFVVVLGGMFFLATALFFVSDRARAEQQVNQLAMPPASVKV
Put plainly: cryo-EM structure ([…] Å); affinity selection mass spectrometry; cell-based S1P efflux assay. The format is binding.

For the compound `CCCCCCCCc1ccc(CC[C@](N)(CO)COP(=O)(O)O)cc1` [FTY720-P], the “cell-based FTY720-P transport assay, WT vs mutants” value in assay [1] was “substitutions also significantly decreased FTY720-P transport activity, which indicates a similar FTY720-P transport mechanism as S1P”.

In the case of `CCCCCCCCCCCCC/C=C/[C@@H](O)[C@@H](N)COP(=O)(O)O` [S1P, sphingosine-1-phosphate], the “cryo-EM structure (3.60 Å); affinity selection mass spectrometry; cell-based S1P” value in assay [2] is recorded as “The affinity selection mass spectrometry results confirmed that endogenous S1P bound to Spns2fusion”.
